In paper PMC8539612, “Enzymatic Synthesis of Novel Vitexin Glucosides” (Molecules, 2021):
Converted amounts (≈) assume the structure as drawn.

Experiments:
[1] = parameters: method as in PMID 32292045; conditions: poor bioavailability; cited from earlier work
[2] = Determination of aqueous solubility (vortex 1 h at 25 °C, centrifugation, filtration, HPLC); assay type: physicochemical; conditions: for solubility at 1 h: thermodynamic from solid; for Aqueous solubility compared with vitexin: at different pH
Experimental: HPLC was performed with an Agilent® 1100 series HPLC system (Santa Clara, CA, USA) equipped with a gradient pump (Waters 600, Waters, Milford, MA, USA). The stationary phase was a C18 column (Sharpsil H-C18, 5 μm, 4.6 i.d. × 250 mm, Sharpsil, Bei-jing, China), and the mobile phase was 1% acetic acid in water (A) and methanol (B). The elution condition was a linear gradient from 0 min with 40% B to 20 min with 70% B; an isocratic elution from 20 min to 25 min with 70% B; a linear gradient from 25 min with 70% B to 28 min with 40% B; and an isocratic elution from 28 min to 35 min with 40% B. All elutions were performed at a flow rate of 1 mL/min. The sample volume was 10 µL. The detection condition was set at 254 nm.
The aqueous solubility of vitexin and its glucoside derivatives was examined as follows. Each compound was vortexed in double-deionized H2O, PB at pH 6, or pH 8, for 1 h at 25 °C. The mixture was centrifuged at 10,000× g for 30 min at 25 °C. The supernatant was filtered through a 0.2 µm nylon membrane, mixed with an equal volume of methanol, and analyzed by HPLC. The concentration of the tested compounds was determined on the basis of their peak areas, using calibration curves prepared by HPLC analyses of authentic samples.

[3] = PB (buffer), aqueous buffer, PB at pH 6, 25 °C
[4] = PB (buffer), aqueous buffer, PB at pH 8, 25 °C
[5] = double-deionized water, water, Deionized H2O at pH 7, 25 °C

Structure (SMILES)	Absorption in the gastrointestinal tract [1]	Fold increase in aqueous solubility relative to vitexin in deionized H2O (normalized to 1) ([2]; Deionized H2O at pH 7)	solubility at 1 h [2, 3]	solubility at 1 h [2, 4]	Fold increase in aqueous solubility relative to vitexin in deionized H2O (normalized to 1) ([2]; PB at pH 6)	Fold increase in aqueous solubility relative to vitexin in deionized H2O (normalized to 1) ([2]; PB at pH 8)	solubility at 1 h [2, 5]	Aqueous solubility compared with vitexin [2]
O=c1cc(-c2ccc(O)cc2)oc2c([C@@H]3O[C@H](CO)[C@@H](O)[C@H](O)[C@H]3O)c(O)cc(O)c12 [Vitexin, apigenin-8-C-glucoside]	approximately 5%	1	7.1 ± 1.2 µg/mL (≈ 16.4 µM)	157 ± 3.1 µg/mL (≈ 364 µM)	0.2	4.2	37.2 ± 2.8 µg/mL (≈ 86 µM)	
O=c1cc(-c2ccc(OC3OC(CO)C(O)C(O)C3O)cc2)oc2c(C3OC(CO)C(O)C(O)C3O)c(O)cc(O)c12 (stereo not drawn) [Vitexin-4′-O-β-glucoside (1), vitexin-4′-O-β-glucoside]		25.3	943 ± 212 µg/mL (≈ 1590 µM)	1800 ± 229 µg/mL (≈ 3030 µM)	25.3	48.4	941 ± 68.7 µg/mL (≈ 1580 µM)	higher than that of vitexin
O=c1cc(-c2ccc(O)cc2)oc2c(C3OC(CO)C(O)C(O)C3O)c(O)cc(OC3OC(CO)C(O)C(O)C3O)c12 (stereo not drawn) [Vitexin-5-O-β-glucoside (2), vitexin-5-O-β-glucoside]			444 ± 45 µg/mL (≈ 747 µM)	767 ± 21.6 µg/mL (≈ 1290 µM)	11.9	20.6	735 ± 51.7 µg/mL (≈ 1240 µM)	higher than that of vitexin
